Measurements: patent US11020398B2, “Amino-pyrrolopyrimidinone compounds and methods of use thereof” (ArQule, Inc., priority 2016, dated 2021)

Target: full-length activated BTK mutant C481S (Homo sapiens (Human), UniProt Q06187, C481S)
Experiment: AlphaScreen assay, BTK mutant C481S
Assay type: biochemical
Conditions: not given

full-length activated BTK mutant C481S, sequence (Q06187 whole entry C481S): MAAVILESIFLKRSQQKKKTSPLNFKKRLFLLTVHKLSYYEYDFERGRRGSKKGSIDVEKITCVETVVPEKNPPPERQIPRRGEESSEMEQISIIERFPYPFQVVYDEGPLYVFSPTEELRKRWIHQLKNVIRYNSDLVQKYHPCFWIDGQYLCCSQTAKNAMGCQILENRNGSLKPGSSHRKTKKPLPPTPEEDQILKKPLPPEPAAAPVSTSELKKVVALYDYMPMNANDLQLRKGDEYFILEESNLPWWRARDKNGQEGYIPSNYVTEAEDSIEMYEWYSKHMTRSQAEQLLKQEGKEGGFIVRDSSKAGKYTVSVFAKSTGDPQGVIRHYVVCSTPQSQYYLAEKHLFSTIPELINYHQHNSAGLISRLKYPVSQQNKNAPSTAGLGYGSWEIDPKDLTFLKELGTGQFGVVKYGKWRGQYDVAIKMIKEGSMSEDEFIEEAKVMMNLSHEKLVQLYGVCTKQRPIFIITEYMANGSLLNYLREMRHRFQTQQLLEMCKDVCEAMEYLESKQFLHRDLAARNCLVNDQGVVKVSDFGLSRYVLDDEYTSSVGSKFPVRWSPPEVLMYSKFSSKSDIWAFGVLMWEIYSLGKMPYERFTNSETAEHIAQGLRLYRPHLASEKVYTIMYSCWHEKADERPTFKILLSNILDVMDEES

IC50 [nM]	SMILES
52	CC(=O)N1C[C@H](Nc2ncnc3[nH]cc(C(=O)c4ccc(Oc5ccccc5)cc4Cl)c23)C[C@H]1CO [Compound I-655, 1-((2S,4R)-4-((5-(2-chloro-4-phenoxybenzoyl)-7H-pyrrolo[2,3-d]pyrimidin-4-yl)amino)-2-(hydroxymethyl)pyrrolidin-1-yl)ethan-1-one]
254	CS(=O)(=O)N1C[C@H](Nc2ncnc3[nH]cc(C(=O)c4ccc(Oc5ccccc5)cc4Cl)c23)C[C@H]1CO [Compound I-656, (2-chloro-4-phenoxyphenyl)(4-(((3R,5S)-5-(hydroxymethyl)-1-(methylsulfonyl)pyrrolidin-3-yl)amino)-7H-pyrrolo[2,3-d]pyrimidin-5-yl)methanone]
832	O=C(c1ccc(Oc2ccccc2)cc1Cl)c1c[nH]c2ncnc(NC[C@@H]3C[C@@H](CO)N(Cc4ccccc4)C3)c12 [Compound I-657, (4-((((3S,5S)-1-benzyl-5-(hydroxymethyl)pyrrolidin-3-yl)methyl)amino)-7H-pyrrolo[2,3-d]pyrimidin-5-yl)(2-chloro-4-phenoxyphenyl)methanone]

Target: full-length activated BTK (wildtype) (Homo sapiens (Human), UniProt Q06187)
Sequence (Q06187 whole entry): as the sequence (Q06187 whole entry C481S) above, with S481C counted along it
Experiment: AlphaScreen assay, wild-type BTK
Assay type: biochemical
Conditions: not given

IC50 [nM]	SMILES
44.5	CC(=O)N1C[C@H](Nc2ncnc3[nH]cc(C(=O)c4ccc(Oc5ccccc5)cc4Cl)c23)C[C@H]1CO [Compound I-655, 1-((2S,4R)-4-((5-(2-chloro-4-phenoxybenzoyl)-7H-pyrrolo[2,3-d]pyrimidin-4-yl)amino)-2-(hydroxymethyl)pyrrolidin-1-yl)ethan-1-one]
123	CS(=O)(=O)N1C[C@H](Nc2ncnc3[nH]cc(C(=O)c4ccc(Oc5ccccc5)cc4Cl)c23)C[C@H]1CO [Compound I-656, (2-chloro-4-phenoxyphenyl)(4-(((3R,5S)-5-(hydroxymethyl)-1-(methylsulfonyl)pyrrolidin-3-yl)amino)-7H-pyrrolo[2,3-d]pyrimidin-5-yl)methanone]
236	O=C(c1ccc(Oc2ccccc2)cc1Cl)c1c[nH]c2ncnc(NC[C@@H]3C[C@@H](CO)N(Cc4ccccc4)C3)c12 [Compound I-657, (4-((((3S,5S)-1-benzyl-5-(hydroxymethyl)pyrrolidin-3-yl)methyl)amino)-7H-pyrrolo[2,3-d]pyrimidin-5-yl)(2-chloro-4-phenoxyphenyl)methanone]

Target: phosphorylated form of full length BTK (active BTK) (Homo sapiens (Human), UniProt Q06187)
Sequence (Q06187 whole entry): as the sequence (Q06187 whole entry C481S) above, with S481C counted along it
Experiment: Mobility shift assay (MSA, Caliper LabChip), active BTK assay
Assay type: biochemical
Conditions: Assay type B (MSA using active BTK)
Procedure: The active BTK assay consists of phosphorylated form of full length BTK. […] The enzyme inhibitor complexes is incubated, before the kinase activation reaction is initiated.
Mobility Shift Assay (MSA)
The active BTK assay consisted of phosphorylated form of full length BTK. […] The enzyme inhibitor complexes was incubated for 30 minutes at the room temperature and the kinase activation reaction was initiated by the addition of 1 μM Srctide peptide substrate and […].

SMILES	IC50 [nM]
CC(O)CCCCC(=O)N[C@H]1CC[C@@H](Nc2ncnc3[nH]cc(C(=O)c4ccc(Oc5ccccc5)cc4Cl)c23)CC1 (mixture of isomers) [Compound I-212, rac-N-(cis-4-((5-(2-chloro-4-phenoxybenzoyl)-7H-pyrrolo[2,3-d]pyrimidin-4-yl)amino)cyclohexyl)-6-hydroxyheptanamide]	2.9
CC(O)CCCCCC(=O)N[C@H]1CC[C@@H](Nc2ncnc3[nH]cc(C(=O)c4ccc(Oc5ccccc5)cc4Cl)c23)CC1 (mixture of isomers) [Compound I-214, rac-N-(cis-4-((5-(2-chloro-4-phenoxybenzoyl)-7H-pyrrolo[2,3-d]pyrimidin-4-yl)amino)cyclohexyl)-7-hydroxyoctanamide]	7.4
CC(=O)N[C@@H](C)[C@@H]1CC[C@@H](Nc2ncnc3[nH]cc(C(=O)c4ccccc4C)c23)CO1 [Compound I-117, N—((S)-1-((2S,5R)-5-((5-(2-methylbenzoyl)-7H-pyrrolo[2,3-d]pyrimidin-4-yl)amino)tetrahydro-2H-pyran-2-yl)ethyl)acetamide]	5.9
CS(=O)(=O)Nc1cccc(C(=O)c2c[nH]c3ncnc(N[C@H]4CC[C@@H](N)CC4)c23)c1 [Compound I-120, N-(3-(4-((cis-4-aminocyclohexyl)amino)-7H-pyrrolo[2,3-d]pyrimidine-5-carbonyl)phenyl)methanesulfonamide]	121
N[C@H]1CC[C@@H](Nc2ncnc3[nH]cc(C(=O)c4cccc(NS(=O)(=O)c5ccccc5)c4)c23)CC1 [Compound I-121, N-(3-(4-((cis-4-aminocyclohexyl)amino)-7H-pyrrolo[2,3-d]pyrimidine-5-carbonyl)phenyl)benzenesulfonamide]	7.3
N[C@H]1CC[C@@H](Nc2ncnc3[nH]cc(C(=O)c4ccc(Oc5ccccc5)cc4)c23)CC1 [Compound I-130, (4-((cis-4-aminocyclohexyl)amino)-7H-pyrrolo[2,3-d]pyrimidin-5-yl)(4-phenoxyphenyl)methanone]	3.2
N[C@H]1CC[C@@H](Nc2ncnc3[nH]cc(C(=O)c4cccc(Oc5ccccc5)c4)c23)CC1 [Compound I-131, (4-((cis-4-aminocyclohexyl)amino)-7H-pyrrolo[2,3-d]pyrimidin-5-yl)(3-phenoxyphenyl)methanone]	3.8
C[C@@H](O)[C@@H](CO)NC(=O)[C@@H]1CC[C@@H](Nc2ncnc3[nH]cc(C(=O)c4ccc(Oc5ccccc5)cc4)c23)CO1 [Compound I-175, (2S,5R)—N-((2R,3R)-1,3-dihydroxybutan-2-yl)-5-((5-(4-phenoxybenzoyl)-7H-pyrrolo[2,3-d]pyrimidin-4-yl)amino) tetrahydro-2H-pyran-2-carboxamide]	3.1
O=C(c1ccc(Oc2ccccc2)cc1)c1c[nH]c2ncnc(N[C@@H]3CC[C@@H](C(=O)NC[C@@H](O)CO)OC3)c12 [Compound I-176, (2S,5R)—N—((R)-2,3-dihydroxypropyl)-5-((5-(4-phenoxybenzoyl)-7H-pyrrolo[2,3-d]pyrimidin-4-yl)amino)tetrahydro-2H-pyran-2-carboxamide]	2.5

More lines, now with the values ahead:

IC50 [nM]	SMILES
1.8	O=C(c1ccc(Oc2ccccc2)cc1Cl)c1c[nH]c2ncnc(N[C@H]3CC[C@@H](O)[C@@H](O)C3)c12 (racemic) [Compound I-179, rac-(2-chloro-4-phenoxyphenyl)(4-(((1S,3S,4R)-3,4-dihydroxycyclohexyl)amino)-7H-pyrrolo[2,3-d]pyrimidin-5-yl)methanone]
1.8	O=C(c1ccc(Oc2ccccc2)cc1Cl)c1c[nH]c2ncnc(N[C@H]3CC[C@H](O)[C@H](O)C3)c12 (racemic) [Compound I-180, rac-(2-chloro-4-phenoxyphenyl)(4-(((1S,3R,4S)-3,4-dihydroxycyclohexyl)amino)-7H-pyrrolo[2,3-d]pyrimidin-5-yl)methanone]
4.6	C[C@H](O)C(=O)N(C)[C@H]1CC[C@@H](Nc2ncnc3[nH]cc(C(=O)c4ccccc4Cl)c23)CC1 [Compound I-106, (S)—N-(cis-4-((5-(2-chlorobenzoyl)-7H-pyrrolo[2,3-d]pyrimidin-4-yl)amino)cyclohexyl)-2-hydroxy-N-methylpropanamide]
12	COC[C@]1(O)CC[C@H](Nc2ncnc3[nH]cc(C(=O)c4ccccc4Cl)c23)CC1 [Compound I-107, (2-chlorophenyl)(4-((trans-4-hydroxy-4-(methoxymethyl)cyclohexyl)amino)-7H-pyrrolo[2,3-d]pyrimidin-5-yl)methanone]
7	COC[C@]1(O)CC[C@@H](Nc2ncnc3[nH]cc(C(=O)c4ccccc4Cl)c23)CC1 [Compound I-108, (2-chlorophenyl)(4-((cis-4-hydroxy-4-(methoxymethyl)cyclohexyl)amino)-7H-pyrrolo[2,3-d]pyrimidin-5-yl)methanone]
3.2	COC1CN([C@H]2CC[C@@H](Nc3ncnc4[nH]cc(C(=O)c5ccccc5Cl)c34)CC2)C1 [Compound I-109, (2-chlorophenyl)(4-((cis-4-(3-methoxyazetidin-1-yl)cyclohexyl)amino)-7H-pyrrolo[2,3-d]pyrimidin-5-yl)methanone]
16	COC1CN([C@H]2CC[C@H](Nc3ncnc4[nH]cc(C(=O)c5ccccc5Cl)c34)CC2)C1 [Compound I-110, (2-chlorophenyl)(4-((trans-4-(3-methoxyazetidin-1-yl)cyclohexyl)amino)-7H-pyrrolo[2,3-d]pyrimidin-5-yl)methanone]
3	CC1(O)CN([C@H]2CC[C@@H](Nc3ncnc4[nH]cc(C(=O)c5ccccc5Cl)c34)CC2)C1 [Compound I-111, (2-chlorophenyl)(4-((cis-4-(3-hydroxy-3-methylazetidin-1-yl)cyclohexyl)amino)-7H-pyrrolo[2,3-d]pyrimidin-5-yl)methanone]
18	CC1(O)CN([C@H]2CC[C@H](Nc3ncnc4[nH]cc(C(=O)c5ccccc5Cl)c34)CC2)C1 [Compound I-112, (2-chlorophenyl)(4-((trans-4-(3-hydroxy-3-methylazetidin-1-yl)cyclohexyl)amino)-7H-pyrrolo[2,3-d]pyrimidin-5-yl)methanone]
3.6	CC1(N)CN([C@H]2CC[C@@H](Nc3ncnc4[nH]cc(C(=O)c5ccccc5Cl)c34)CC2)C1 [Compound I-113, (4-((cis-4-(3-amino-3-methylazetidin-1-yl)cyclohexyl)amino)-7H-pyrrolo[2,3-d]pyrimidin-5-yl)(2-chlorophenyl)methanone]
23	CC1(N)CN([C@H]2CC[C@H](Nc3ncnc4[nH]cc(C(=O)c5ccccc5Cl)c34)CC2)C1 [Compound I-114, (4-((trans-4-(3-amino-3-methylazetidin-1-yl)cyclohexyl)amino)-7H-pyrrolo[2,3-d]pyrimidin-5-yl)(2-chlorophenyl)methanone]
5.8	CC(C)(O)C(=O)N[C@H]1CC[C@@H](Nc2ncnc3[nH]cc(C(=O)c4ccccc4Cl)c23)CC1 [Compound I-115, N-(cis-4-((5-(2-chlorobenzoyl)-7H-pyrrolo[2,3-d]pyrimidin-4-yl)amino)cyclohexyl)-2-hydroxy-2-methylpropanamide]
5.9	CC(=O)N[C@@H](C)[C@@H]1CC[C@@H](Nc2ncnc3[nH]cc(C(=O)c4ccccc4Cl)c23)CO1 [Compound I-116, N—((S)-1-((2S,5R)-5-((5-(2-chlorobenzoyl)-7H-pyrrolo[2,3-d]pyrimidin-4-yl)amino)tetrahydro-2H-pyran-2-yl)ethyl)acetamide]
4.4	CC(=O)NC[C@@H]1CC[C@@H](Nc2ncnc3[nH]cc(C(=O)c4ccccc4Cl)c23)CO1 [Compound I-118, N-(((2S,5R)-5-((5-(2-chlorobenzoyl)-7H-pyrrolo[2,3-d]pyrimidin-4-yl)amino)tetrahydro-2H-pyran-2-yl)methyl)acetamide]
5.1	CC(=O)NC[C@@H]1CC[C@@H](Nc2ncnc3[nH]cc(C(=O)c4ccccc4C)c23)CO1 [Compound I-119, N-(((2S,5R)-5-((5-(2-methylbenzoyl)-7H-pyrrolo[2,3-d]pyrimidin-4-yl)amino)tetrahydro-2H-pyran-2-yl)methyl)acetamide]
1.63	CC(=O)NC[C@@H]1CC[C@@H](Nc2ncnc3[nH]cc(C(=O)c4ccc(Oc5ccccc5)cc4Cl)c23)CO1 [Compound I-127, N-(((2S,5R)-5-((5-(2-chloro-4-phenoxybenzoyl)-7H-pyrrolo[2,3-d]pyrimidin-4-yl)amino)tetrahydro-2H-pyran-2-yl)methyl)acetamide]
